Reference: patent publication US20260347310A1, “PHENALKYLAMINES AND METHODS OF MAKING AND USING THE SAME” (GILGAMESH PHARMACEUTICALS, INC., priority 2022, published 2026)
Read-outs that look alike come from different tables or passages of the source.

Key:
[1] = Pharmacokinetics in plasma of rats after oral and intravenous dosing; oral bioavailability; format: in vivo, Sprague Dawley rats; settings: rat plasma, racemate, 10% captisol
Protocol: The pharmacokinetics of disclosed compounds were determined in the plasma of rats after oral and intravenous dosing, with the results presented in Table 13.
Animals. Male Sprague Dawley rats were used in these studies. Animals were randomly assigned to treatment groups and were fasted overnight before oral dosing.
Drugs. The test compound was dissolved in 10% captisol (1) or 10% DMSO and 90% normal saline (2a) and administered intravenously (iv) at 2 mg/kg (1) or 1 mg/kg (2a) or orally (po) at 10 mg/kg (1) or 1 mg/kg (2a), calculated based on freebase, and at a volume of 10 mL/kg body weight for oral administration and 5 mL/kg for IV administration. The compounds were tested as the racemates.
Sample Collection and Bioanalysis. Blood samples were collected through the external jugular vein (via cannulation) at 0.083, 0.25, 0.5, 1, 2, 4, 8, and 24 h post-dose (total 8 time points/rat, 4 rats per administration route). At each time point, ~0.2 mL of blood was withdrawn and transferred into a pre-labeled 0.5-mL micro centrifuge tube containing 4 μL of 200 mM K2EDTA solution as anticoagulant and mixed gently by inverting the tube to facilitate mixing of anticoagulant with the blood. Blood samples were kept on ice until centrifugation. The collected blood samples were centrifuged at 4,000 rpm for 10 min at 4° C. Plasma samples were separated after centrifugation, transferred into pre-labeled tubes, and stored at −70° C. until bioanalysis. For bioanalysis, a 200-μL aliquot of internal standard prepared in acetonitrile (cetirizine, 50 ng/mL) was added (except for blank, where 200 μL of acetonitrile was added) to a 96-well Solvinert filter plate followed by 5 μL of a study plasma sample or spiked calibration standard. The filter plate was then centrifuged for 5 minutes at a speed of 2,500 rpm at 4° C. with a 96-well sample collection plate. Following centrifugation, collected samples were analyzed using a fit-for-purpose LC-MS/MS method, with authentic samples of the analyte used for calibration and identification.
Data Analysis. Pharmacokinetic parameters were estimated using the non-compartmental analysis tool of Phoenix® WinNonlin software (Ver 8.1). The drug concentrations of samples below the lower limit of quantitation (LLOQ) were designated as zero.

[2] = Metabolic stability in human liver microsomes (HLM); format: in vitro ADME; settings: for stability in HLM (in words): 1 μM, 0.50 mg protein/mL, 1 mM NADPH, 37 °C, 60 min; for half-life at 1 µM / microsomal CLint at 1 µM: human liver microsomes 0.50 mg/mL, NADPH 1 mM, test compound 1 μM, 37° C., pH 7.4, 60 min
Protocol: (§1) Test Compounds. Compounds were prepared as described above.
(§2) HLM Stability. Pooled HLM from adult male and female donors (Corning 452117) were used. Microsomal incubations were carried out in multi-well plates. Liver microsomal incubation medium consisted of PBS (100 mM, pH 7.4), MgCl2 (1 mM), and NADPH (1 mM), with 0.50 mg of liver microsomal protein per mL. Control incubations were performed by replacing the NADPH-cofactor system with PBS. Test compounds (1 μM, final solvent concentration 1.0%) were incubated with microsomes at 37° C. with constant shaking. Six time points over 60 minutes were analyzed, with 60 μL aliquots of the reaction mixture being drawn at each time point. The reaction aliquots were stopped by adding 180 μL of cold (4° C.) acetonitrile containing 200 ng/mL tolbutamide and 200 ng/mL labetalol as internal standards (IS), followed by shaking for 10 minutes, and then protein sedimentation by centrifugation at 4,000 rpm for 20 minutes at 4° C. Supernatant samples (80 μL) were diluted with water (240 μL) and analyzed for parent compound remaining using a fit-for-purpose liquid chromatography-tandem mass spectrometry (LC-MS/MS) method.
(§3) Data Analysis. The elimination constant (kel), half-life (t1/2), and intrinsic clearance (CLint) were determined in a plot of […] versus time, using linear regression analysis.

[3] = Metabolic stability in dog liver microsomes (DLM); format: in vitro ADME, Beagle dogs; settings: for stability in DLM (in words): 1 μM, 0.50 mg protein/mL, 1 mM NADPH, 37 °C, 60 min; for half-life at 1 µM / microsomal CLint at 1 µM: dog liver microsomes 0.50 mg/mL, NADPH 1 mM, test compound 1 μM, 37° C., pH 7.4, 60 min
Protocol: as §1
as §2, with “DLM” for “HLM”, “Beagle dogs (Xenotech D1000)” for “and female donors (Corning 452117)”
as §3

[4] = target: T1, 5-HT2A receptor (Homo sapiens, UniProt P28223); assay: Radioligand binding at 5-HT2A ([3H]ketanserin); design: expressed in transfected cells
T1 sequence (P28223 whole entry): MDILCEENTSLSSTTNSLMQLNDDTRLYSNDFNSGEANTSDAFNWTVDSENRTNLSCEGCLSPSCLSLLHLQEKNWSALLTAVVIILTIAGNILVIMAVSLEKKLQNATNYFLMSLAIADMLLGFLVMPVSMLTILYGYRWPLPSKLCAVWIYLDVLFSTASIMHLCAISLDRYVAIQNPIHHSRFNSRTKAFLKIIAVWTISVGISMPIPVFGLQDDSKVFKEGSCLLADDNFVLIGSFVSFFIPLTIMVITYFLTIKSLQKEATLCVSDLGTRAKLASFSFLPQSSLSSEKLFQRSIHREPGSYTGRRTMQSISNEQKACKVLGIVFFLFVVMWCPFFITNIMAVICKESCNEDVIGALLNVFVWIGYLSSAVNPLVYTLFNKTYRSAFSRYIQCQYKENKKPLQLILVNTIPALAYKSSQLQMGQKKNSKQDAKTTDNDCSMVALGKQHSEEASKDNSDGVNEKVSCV
Protocol: The binding affinities of disclosed compounds at the ketanserin binding site of the 5-HT2A receptor, the LSD binding site of the 5-HT2B receptor, and the mesulergine binding site of the 5-HT2C receptor were determined in radioligand binding experiments.
Method. The affinity of the test compounds for 5-HT2A, 5-HT2B, and 5-HT2C receptors was determined in radioligand binding experiments with [^3H]ketanserin, [^3H]LSD, and [^3H]mesulergine, respectively, by WuXi AppTec (Hong Kong) Limited, using methods adapted from the literature and under conditions described in Table 7.

[5] = target: T1, 5-HT2A receptor; assay: FLIPR Ca2+ flux functional agonist assay at 5-HT2A; format: cell-based; design: expressed in transfected cells; host or cells: HEK293
Protocol: Disclosed compounds were tested for agonist activity at several serotonin receptor subtypes (5-HT2A, […], and 5-HT2C) using Ca^2+ flux functional assays, with the results summarized in Table 9.
as §1
Functional Assays at 5-HT2A and 5-HT2B. Agonist activity at 5-HT2A and 5-HT2B receptors was determined using a FLIPR Ca^2+ flux assay at WuXi AppTec (Hong Kong) Limited according to their standard protocols. Briefly, stably transfected cells expressing the receptor of interest (HEK293 for both 5-HT2A and 5-HT2B) were grown and plated in a 384-well plate and incubated at 37° C. and 5% CO2 overnight. A solution of 250 mM probenecid in 1 mL FLIPR assay buffer was prepared fresh. This was combined with a fluorescent dye (Fluo-4 Direct™) to make a final assay concentration of 2.5 mM. Compounds were diluted 1:3.16 for 10 points and 750 nL was added to a 384 well compound plate using ECHO along with 30 μL assay buffer. The fluorescent dye was then added to the assay plate along with assay buffer to a final volume of 40 μL. The cell plate was incubated for 50 min at 37° C. and 5% CO2 and placed into the FLIPR Tetra along with the compound plate. 10 μL of references and compounds were then transferred from the compound plate into the cell plate and the fluorescent signal was read.

Compound	bioavailability ([1]; IV 2 mg/kg and PO 10 mg/kg, read-out: F (absolute oral bioavailability)) [%]	C0 ([1]; IV 2 mg/kg) [ng/mL]	AUC(0-t) ([1]; IV 2 mg/kg, read-out: AUC0-last (iv)) [ng·h/mL]	half-life ([1]; IV 2 mg/kg, read-out: t1/2 (iv) (converted)) [h]	Cmax ([1]; PO 10 mg/kg, fasted) [ng/mL]	AUC(0-t) ([1]; PO 10 mg/kg, fasted, read-out: AUC0-last (po)) [ng·h/mL]	half-life ([1]; PO 10 mg/kg, fasted, read-out: t1/2 (po) (converted)) [h]	stability in HLM (in words) [2]	half-life at 1 µM [2] [h]	microsomal CLint at 1 µM [2] [µL/min/mg]	stability in DLM (in words) [3]	half-life at 1 µM [3] [h]	microsomal CLint at 1 µM [3] [µL/min/mg]	Ki [4] [nM]	binding at 5-HT2A receptors (in words) ([4]; [3H]ketanserin)	EC50 [5] [nM]	agonist activity at 5-HT2A (in words) ([5]; Ca2+ flux, potency or efficacy)	Emax ([5]; HEK293, read-out: 5-HT2A % Act @ Max Dose) [%]
CCCCCCc1cc(OC)c(CC(N)CC)cc1OC (racemic) [Compound 1, 1-(4-hexyl-2,5-dimethoxyphenyl)butan-2-amine]	8	389	354	2.16	35.1	138	2.63	–	–	–	–	–	–	–	–	–	–	–
CCC(N)Cc1cc(OC)c(CCCCC(C)(F)F)cc1OC (stereo not drawn) [Compound 2b, 1-(4-(5,5-difluorohexyl)-2,5-dimethoxyphenyl)butan-2-amine]	–	–	–	–	–	–	–	significantly higher stability compared to 1R and 1S	> 2.42	< 9.6	significantly higher stability compared to 1R and 1S	1.19	19.4	9.52	potent ligands for 5-HT2A	5060	substantially less potent than 1R and 1S in the 5-HT2A FLIPR assay	71.3
[2H]C([2H])([2H])CCCCCc1cc(OC)c(CC(N)CC)cc1OC (stereo not drawn) [Compound 3a, 1-(4-(hexyl-6,6,6-d3)-2,5-dimethoxyphenyl)butan-2-amine]	–	–	–	–	–	–	–	intermediate stability	0.517	44.7	modestly greater stability than 1R or 1S	0.557	41.5	–	–	–	–	–
